The text below walks through data of ChEMBL document CHEMBL5728840, “Vasopressin receptor antagonists and products and methods related thereto” (2021).

The target of the test is Vasopressin V1a receptor (Homo sapiens, UniProt P37288). In words: Vasopressin V1A Receptor Antagonist Assay: The purpose of this assay was to determine the inhibitory effect of synthesized compounds on the Vasopressin V1a receptor. The assay as performed in Chinese Hamster Ovary (CHO) cells expressing the human Arginine Vasopressin Receptor 1a (AVPR1a). Arginine Vasopressin (AVP) evokes an increase in intracellular calcium in CHO-AVPR1a cells which is measured in a fluorescence assay on the […] using calcium sensitive dyes. Test compounds were assessed for their ability to affect the magnitude of the response to AVP, with antagonists showing a concentration-dependent reduction in the AVP-mediated fluorescence. Compounds were tested in duplicate in a 10-point, 1:3 dilution series starting at a nominal concentration of 3 μM in the assay.CHO-AVPR1a cells were maintained in routine culture in T175 Flasks at 37° C., 5% CO2. The growth medium consists of Ham's F12 media supplemented with 10% v/v fetal bovine serum, 1× non-essential amino acids, and 0.4 mg/ml Geneticin G418. Type of test: cell-based. (A change in cytosolic calcium serves as a functional read-out for many receptors and channels.)
Vasopressin V1a receptor, sequence (P37288 whole entry): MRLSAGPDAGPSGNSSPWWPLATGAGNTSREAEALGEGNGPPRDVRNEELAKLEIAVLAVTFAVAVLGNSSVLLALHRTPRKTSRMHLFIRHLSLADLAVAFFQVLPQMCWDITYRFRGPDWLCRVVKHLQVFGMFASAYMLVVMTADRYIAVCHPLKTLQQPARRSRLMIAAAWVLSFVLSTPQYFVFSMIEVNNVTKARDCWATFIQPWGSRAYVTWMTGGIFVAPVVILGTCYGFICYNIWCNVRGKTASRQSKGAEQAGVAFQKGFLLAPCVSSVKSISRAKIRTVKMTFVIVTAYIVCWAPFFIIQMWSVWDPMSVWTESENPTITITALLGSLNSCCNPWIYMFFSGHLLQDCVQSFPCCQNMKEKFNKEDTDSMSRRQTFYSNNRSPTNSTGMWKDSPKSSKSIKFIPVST

Where only a bound is given, the exact number is not on record here.

For the compound `CN(C)C(=O)N1Cc2cc(Cl)ccc2-n2c(nnc2C2CC3(C2)CN(c2ccc(F)cn2)C3)C1`, the half-maximal inhibitory concentration (IC50) was < 100 nM. The result for `O=C(C1CC1)N1CC2(CC(c3nnc4n3-c3ccc(Cl)cc3CN(C3CC3)C4)C2)C1` reads < 100 nM.

As a reminder, the IC50 is the point on the concentration scale where inhibition reaches its midpoint.
